Laboratory results reported in ChEMBL document CHEMBL1143638, “Pyrazolopyridinones as functionally selective GABAA ligands” (Bioorg Med Chem Lett, 2005).

Legend:
[1] = molecular target: T1, GABA-A receptor; alpha-1/beta-3/gamma-2 (Homo sapiens, UniProt P14867+P18507+P28472); assay: Inhibition of [3H]-Ro- 15-1788 binding to human GABA-A receptor alpha-1-beta-3-gamma-2 expressed in L(tk-) cells; assay type: cell-based
T1 sequence (P14867 whole entry): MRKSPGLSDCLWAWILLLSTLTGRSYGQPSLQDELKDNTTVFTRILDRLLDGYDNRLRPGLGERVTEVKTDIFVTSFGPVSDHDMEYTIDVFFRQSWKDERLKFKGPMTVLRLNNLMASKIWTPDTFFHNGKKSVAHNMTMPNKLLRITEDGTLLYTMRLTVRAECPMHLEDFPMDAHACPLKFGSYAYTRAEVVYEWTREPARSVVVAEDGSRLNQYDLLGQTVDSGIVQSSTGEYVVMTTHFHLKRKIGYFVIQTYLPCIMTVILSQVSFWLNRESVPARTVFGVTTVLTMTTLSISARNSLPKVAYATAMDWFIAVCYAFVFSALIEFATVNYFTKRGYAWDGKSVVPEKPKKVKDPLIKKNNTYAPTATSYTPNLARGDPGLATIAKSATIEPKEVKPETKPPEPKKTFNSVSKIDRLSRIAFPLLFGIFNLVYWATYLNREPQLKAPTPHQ
T1 sequence (P18507 whole entry): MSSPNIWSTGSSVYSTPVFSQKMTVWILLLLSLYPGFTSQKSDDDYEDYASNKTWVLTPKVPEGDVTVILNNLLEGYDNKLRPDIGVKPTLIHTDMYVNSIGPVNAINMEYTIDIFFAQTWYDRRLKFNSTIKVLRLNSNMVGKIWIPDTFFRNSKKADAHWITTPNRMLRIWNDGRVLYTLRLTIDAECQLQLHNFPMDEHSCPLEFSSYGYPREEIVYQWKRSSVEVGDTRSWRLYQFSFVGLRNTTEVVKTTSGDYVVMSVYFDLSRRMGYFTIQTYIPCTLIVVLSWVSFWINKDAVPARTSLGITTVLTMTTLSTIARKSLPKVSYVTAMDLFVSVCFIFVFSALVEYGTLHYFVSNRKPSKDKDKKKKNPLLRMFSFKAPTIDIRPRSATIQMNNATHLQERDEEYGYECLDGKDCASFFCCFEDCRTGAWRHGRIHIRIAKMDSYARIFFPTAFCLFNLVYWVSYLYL
T1 sequence (P28472 whole entry): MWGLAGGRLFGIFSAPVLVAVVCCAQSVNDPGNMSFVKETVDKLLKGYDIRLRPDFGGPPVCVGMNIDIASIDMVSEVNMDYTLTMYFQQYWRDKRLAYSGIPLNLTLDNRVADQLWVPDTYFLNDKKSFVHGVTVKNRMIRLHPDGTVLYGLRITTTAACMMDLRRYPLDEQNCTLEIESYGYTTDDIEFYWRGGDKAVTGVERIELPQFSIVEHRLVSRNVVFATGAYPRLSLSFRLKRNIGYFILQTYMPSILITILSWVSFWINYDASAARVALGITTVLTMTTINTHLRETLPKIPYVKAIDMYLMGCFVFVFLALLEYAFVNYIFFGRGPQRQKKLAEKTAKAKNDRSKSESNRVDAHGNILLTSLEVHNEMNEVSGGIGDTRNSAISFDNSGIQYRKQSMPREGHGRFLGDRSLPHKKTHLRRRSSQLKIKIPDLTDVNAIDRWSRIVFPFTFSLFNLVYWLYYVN

[2] = molecular target: T2, GABA-A receptor; alpha-1/beta-3/gamma-2 (Homo sapiens) (UniProt P14867+P18507+P28472); assay: Effective current to modulate GABA-mediated chloride ion flux through GABA-A receptor alpha-1-beta-3-gamma-2 expressed in L(tk-) cells; assay type: functional, cell-based
[3] = molecular target: T2, GABA-A receptor; alpha-1/beta-3/gamma-2 (Homo sapiens); assay: Effective concentration to modulate GABA-mediated chloride ion flux through GABA-A receptor alpha-1-beta-3-gamma-2 expressed in L(tk-) cells; assay type: functional, cell-based
[4] = molecular target: T3, GABA-A receptor; alpha-3/beta-3/gamma-2 (Homo sapiens, UniProt P18507+P28472+P34903); assay: Inhibition of [3H]-Ro- 15-1788 binding to human GABA-A receptor alpha-3-beta-3-gamma-2 expressed in L(tk-) cells; assay type: cell-based
T3 sequence (P18507 whole entry): T1 sequence (P18507 whole entry)
T3 sequence (P28472 whole entry): T1 sequence (P28472 whole entry)
T3 sequence (P34903 whole entry): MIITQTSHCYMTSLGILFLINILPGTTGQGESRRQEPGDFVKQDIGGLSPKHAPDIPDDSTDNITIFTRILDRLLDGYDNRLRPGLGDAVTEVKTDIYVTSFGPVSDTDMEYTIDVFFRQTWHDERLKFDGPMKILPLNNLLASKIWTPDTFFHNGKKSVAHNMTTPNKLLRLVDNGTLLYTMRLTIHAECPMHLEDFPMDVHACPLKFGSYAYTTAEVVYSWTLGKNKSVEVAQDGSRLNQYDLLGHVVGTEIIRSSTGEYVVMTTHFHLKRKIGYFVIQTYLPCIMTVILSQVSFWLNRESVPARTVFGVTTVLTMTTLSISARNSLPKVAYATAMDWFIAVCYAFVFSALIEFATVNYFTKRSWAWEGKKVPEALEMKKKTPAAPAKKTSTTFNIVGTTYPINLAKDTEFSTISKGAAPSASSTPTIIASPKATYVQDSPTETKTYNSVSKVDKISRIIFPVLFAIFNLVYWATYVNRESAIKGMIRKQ

[5] = molecular target: T4, GABA-A receptor; alpha-3/beta-3/gamma-2 (Homo sapiens) (UniProt P18507+P28472+P34903); assay: Effective concentration to modulate GABA-mediated chloride ion flux through GABA-A receptor alpha-3-beta-3-gamma-2 expressed in L(tk-) cells; assay type: functional, cell-based
[6] = molecular target: T4, GABA-A receptor; alpha-3/beta-3/gamma-2 (Homo sapiens); assay: Effective current to modulate GABA-mediated chloride ion flux through GABA-A receptor alpha-3-beta-3-gamma-2 expressed in L(tk-) cells; assay type: functional, cell-based

Ki [1]: 0.29 nM
Efficacy [2]: 0.21
Efficacy [3]: 0.14
Ki [4]: 1.5 nM
Efficacy [5]: 0.38
Efficacy [6]: 0.45
SMILES: O=c1c2c[nH]c3c(c-2nn1-c1ccc(Cl)cc1)CCCC3
